Measured values: ChEMBL document CHEMBL1149683, “Novel TOPP descriptors in 3D-QSAR analysis of apoptosis inducing 4-aryl-4H-chromenes: comparison versus other 2D- and 3D-descriptors” (2007)

Tested on: HL-60
Experiment: Induction of apoptosis in human HL60 […]
Format: functional

Compound | Log (1/C)
COc1cc(Br)cc(C2C(C#N)=C(N)Oc3cc(N(C)C)ccc32)c1 (stereo not drawn) | 7.51
COc1cccc(C2C(C#N)=C(N)Oc3cc(N(C)C)ccc32)c1OC (stereo not drawn) | 5.99
CN(C)c1ccc2c(c1)OC(N)=C(C#N)C2c1cccc(F)c1 (stereo not drawn) | 7.09
CCNc1ccc2c(c1)OC(N)=C(C#N)C2c1cccc(Cl)c1 (stereo not drawn) | 6.92
CN(C)c1ccc2c(c1)OC(N)=C(C#N)C2c1cccnc1 (stereo not drawn) | 7.17
COc1cc(C2C(C#N)=C(N)Oc3cc(O)ccc32)cc(Br)c1OC (stereo not drawn) | 6.89
COc1cc(C2C(C#N)=C(N)Oc3c2ccc(N)c3N)cc(Br)c1OC (stereo not drawn) | 7.47
COc1cc(C2C(C#N)=C(N)Oc3cc(N(C)C)ccc32)cc(Cl)c1OC (stereo not drawn) | 7.74
COc1ccccc1C1C(C#N)=C(N)Oc2cc(N(C)C)ccc21 (stereo not drawn) | 6.55
COc1cc(C2C(C#N)=C(N)Oc3cc(Cl)ccc32)cc(Br)c1OC (stereo not drawn) | 6.8
COc1cc(C2C(C#N)=C(N)Oc3c2ccc(O)c3N)cc(Br)c1OC (stereo not drawn) | 7.21
COc1cc(C2C(C#N)=C(N)Oc3cc(N(C)C)ccc32)cc(Br)c1O (stereo not drawn) | 7.39
COc1ccc(C2C(C#N)=C(N)Oc3cc(N(C)C)ccc32)c(OC)c1OC (stereo not drawn) | 5.5
COc1ccc2c(c1)OC(N)=C(C#N)C2c1cccc(Cl)c1 (stereo not drawn) | 7.1
CCOc1ccc2c(c1)OC(N)=C(C#N)C2c1cc(Br)c(OC)c(OC)c1 (stereo not drawn) | 7.19
CN(C)c1ccc2c(c1)OC(N)=C(C#N)C2c1ccncc1 (stereo not drawn) | 6.42
CCNc1ccc2c(c1)OC(N)=C(C#N)C2c1cccc(OC)c1 (stereo not drawn) | 6.96
CN(C)c1ccc2c(c1)OC(N)=C(C#N)C2c1cccc(Br)c1 (stereo not drawn) | 7.19
CCNc1ccc2c(c1)OC(N)=C(C#N)C2c1cc(OC)c2c(c1)OCO2 (stereo not drawn) | 6.48
COc1cc(C2C(C#N)=C(N)Oc3cc(O)ccc32)cc2c1OCO2 (stereo not drawn) | 5.24
CN(C)c1ccc2c(c1)OC(N)=C(C#N)C2c1cncc(Br)c1 (stereo not drawn) | 7.48
N#CC1=C(N)Oc2c(ccc(N)c2N)C1c1cccc([N+](=O)[O-])c1 (stereo not drawn) | 6.41
COc1cc(C2C(C#N)=C(N)Oc3cc4c(cc32)OCO4)cc2c1OCO2 (stereo not drawn) | 6.68
COc1cc(C2C(C#N)=C(N)Oc3cc(N(C)C)ccc32)cc2c1OCO2 (stereo not drawn) | 7.14
COc1cncc(C2C(C#N)=C(N)Oc3cc(OC)ccc32)c1 (stereo not drawn) | 7.33

Compound | Log (1/C)
COc1ccc(C2C(C#N)=C(N)Oc3cc(N(C)C)ccc32)cc1 (stereo not drawn) | 5.8
Cc1cncc(C2C(C#N)=C(N)Oc3cc(N(C)C)ccc32)c1 (stereo not drawn) | 7.96
Cc1cccc(C2C(C#N)=C(N)Oc3cc(N(C)C)ccc32)n1 (stereo not drawn) | 6.61
COc1cc(C2C(C#N)=C(N)Oc3cc(N)ccc32)cc(Br)c1OC (stereo not drawn) | 7.48
COc1cc(C2C(C#N)=C(N)Oc3c2ccc(N)c3C)cc2c1OCO2 (stereo not drawn) | 6.51
CN(C)c1ccc2c(c1)OC(N)=C(C#N)C2c1cccc(OC(F)(F)F)c1 (stereo not drawn) | 6.35
CN(C)c1ccc2c(c1)OC(N)=C(C#N)C2c1cc(Cl)cc(Cl)c1 (stereo not drawn) | 7.12
COc1ccc2c(c1)OC(N)=C(C#N)C2c1cccc(Br)c1 (stereo not drawn) | 7.28
CN(C)c1ccc2c(c1)OC(N)=C(C#N)C2c1cccc(O)c1 (stereo not drawn) | 6.57
COc1ccc2c(c1)OC(N)=C(C#N)C2c1cccc([N+](=O)[O-])c1 (stereo not drawn) | 7.05
COc1ccc2c(c1)OC(N)=C(C#N)C2c1cc(OC)c(OC)c(OC)c1 (stereo not drawn) | 7.59
COc1cc(OC)cc(C2C(C#N)=C(N)Oc3cc(OC)ccc32)c1 (stereo not drawn) | 7.82
CCNc1ccc2c(c1)OC(N)=C(C#N)C2c1cc(OC)cc(OC)c1 (stereo not drawn) | 7.26
COc1cc(C2C(C#N)=C(N)Oc3cc(N)ccc32)cc2c1OCO2 (stereo not drawn) | 5.92
CN(C)c1ccc2c(c1)OC(N)=C(C#N)C2c1cc(Br)c2c(c1)OCO2 (stereo not drawn) | 6.61
COc1cc(C2C(C#N)=C(N)Oc3c2ccc(N)c3N)cc(Br)c1O (stereo not drawn) | 7.64
COc1cccc(C2C(C#N)=C(N)Oc3cc(OC)ccc32)c1 (stereo not drawn) | 7.28
CN(C)c1ccc2c(c1)OC(N)=C(C#N)C2CCc1ccccc1 (stereo not drawn) | 6.37
COc1cc(C2C(C#N)=C(N)Oc3c2ccc(N)c3C)cc(Br)c1OC (stereo not drawn) | 7.59
COc1cc(OC)cc(C2C(C#N)=C(N)Oc3c2ccc(N)c3N)c1 (stereo not drawn) | 7.04
CCN(CC)c1ccc2c(c1)OC(N)=C(C#N)C2c1cc(OC)c2c(c1)OCO2 (stereo not drawn) | 6.32
CCNc1cc2c(cc1C)C(c1cc(OC)c3c(c1)OCO3)C(C#N)=C(N)O2 (stereo not drawn) | 5.96
COc1cc(C2C(C#N)=C(N)Oc3c2ccc(N)c3N)cc(I)c1OC (stereo not drawn) | 5.31
CCNc1ccc2c(c1)OC(N)=C(C#N)C2c1cccc([N+](=O)[O-])c1 (stereo not drawn) | 6.96
Cc1cccc(C2C(C#N)=C(N)Oc3cc(N(C)C)ccc32)c1 (stereo not drawn) | 6.87

Compound | Log (1/C)
CCNc1ccc2c(c1)OC(N)=C(C#N)C2c1cc(Br)c(OC)c(OC)c1 (stereo not drawn) | 7.85
COc1ccc2c(c1)OC(N)=C(C#N)C2c1cc(OC)c2c(c1)OCO2 (stereo not drawn) | 6.8
CCNc1ccc2c(c1)OC(N)=C(C#N)C2c1cc(OC)c(OC)c(OC)c1 (stereo not drawn) | 7.31
COc1cc(C2C(C#N)=C(N)Oc3c2ccc(N)c3N)cc(Cl)c1OC (stereo not drawn) | 7.62
CN(C)c1ccc2c(c1)OC(N)=C(C#N)C2c1cccs1 (stereo not drawn) | 6.7
CN(C)c1ccc2c(c1)OC(N)=C(C#N)C2c1cccc(Cl)c1 (stereo not drawn) | 6.95
COc1ccc(C2C(C#N)=C(N)Oc3cc(N(C)C)ccc32)cc1OC (stereo not drawn) | 6.6
CN(C)c1ccc2c(c1)OC(N)=C(C#N)C2c1cc(Br)cs1 (stereo not drawn) | 6.82
COc1ccc2c(c1)OC(N)=C(C#N)C2c1cc(Br)c(OC)c(OC)c1 (stereo not drawn) | 7.77
COc1cc(C2C(C#N)=C(N)Oc3cc(Br)ccc32)cc(Br)c1OC (stereo not drawn) | 6.85
COc1ccc2c(c1)OC(N)=C(C#N)C2c1cccnc1 (stereo not drawn) | 6.77
CN(C)c1ccc2c(c1)OC(N)=C(C#N)C2c1cccc(C#N)c1 (stereo not drawn) | 7.2
N#CC1=C(N)Oc2c(ccc(N)c2N)C1c1cccc(Br)c1 (stereo not drawn) | 6.82
COc1cccc(C2C(C#N)=C(N)Oc3cc(N(C)C)ccc32)c1 (stereo not drawn) | 7.19
COc1ccc2c(c1)OC(N)=C(C#N)C2c1ccccc1 (stereo not drawn) | 6.44
CN(C)c1ccc2c(c1)OC(N)=C(C#N)C2c1cnc2ccccc2c1 (stereo not drawn) | 5.74
COc1cc(C2C(C#N)=C(N)Oc3c2ccc(C)c3C)cc(Br)c1OC (stereo not drawn) | 7.38
CN(C)c1ccc2c(c1)OC(N)=C(C#N)C2c1ccccn1 (stereo not drawn) | 6.33
N#CC1=C(N)Oc2c(ccc(N)c2N)C1c1cccc(C#N)c1 (stereo not drawn) | 6.41
COc1cc(C2C(C#N)=C(N)Oc3cc(N(C)C)ccc32)cc(I)c1OC (stereo not drawn) | 7.74
COc1cc(C2C(C#N)=C(N)Oc3c2ccc(O)c3O)cc(Br)c1OC (stereo not drawn) | 5.77
COc1cc(OC)c(C2C(C#N)=C(N)Oc3cc(N(C)C)ccc32)cc1OC (stereo not drawn) | 5.75
COc1ccc(CC2C(C#N)=C(N)Oc3cc(N(C)C)ccc32)c(Br)c1OC (stereo not drawn) | 5.14
